Assays:
FAP Human Plasma = FAP Human Plasma (Homo sapiens (Human), UniProt Q12884); assay: FAP plasma inhibition assay, human plasma; type: biochemical; conditions: human plasma dilution 1:40, Ala-Pro-AMC 75 μM; n = 1
Procedure: (§1) This assay was adapted from the method described in Example 53 for detection of FAP target engagement enzyme activity in plasma. Plasma (anticoagulant K2EDTA) was used as the enzyme source: Human plasma (Pooled from AZ Biobank) and Mouse plasma (AZ AST Biobank). 384-Well black fluotrack PS plates (Greiner 781076) were used. 20 μL diluted plasma (Human plasma dilution 1:40, Mouse plasma dilution 1:67) in buffer (PBS, 0.1% BSA) was added to 0.6 μL compounds (in DMSO). Compounds were tested using 10 CR, 3-fold dilution series from 500 nM FAC. Two replicates for each assay point were run on the same plate. A fluorescence blank read was taken before substrate addition. Substrate, Ala-Pro-AMC (ARI-3144) stock solution (20 mM in DMSO) was diluted in buffer (PBS, 0.1% BSA) to 150 μM concentration and 20 μL added giving 75 μM FAC. Plates were incubated for 40 min at rt in the dark. The plates were read on a Beckman Paradigm® reader with excitation 360 nm and emission 465 nm. Data were analyzed in Excel (IDBS XLfit Add-In) using a one site dose response model (4-parameter logistic fit). […] Raw data signals were normalized using 1.5% DMSO in diluted plasma as 0% control and 1.5% DMSO in buffer (no plasma) as 100% inhibitor control.

hFAP = hFAP (Homo sapiens (Human), UniProt Q12884);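 also: fluorescence read after incubating enzyme with substrate at room temperature, IC50 fitted from percent inhibition against log concentration with a one-site model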
Procedure: Compounds were tested in a biochemical inhibition assay using hFAP enzyme at 0.24 nM FAC (Proteros, 38-760 (PR-0071)) and the substrate Ala-Pro-AMC (ARI-3144) at 20 μM FAC. 384 low volume black plates (Greiner #784076) were used. 4 μL, 0.48 nM enzyme solution (100 mM Tris HCl, 100 mM NaCl, 0.05% Chaps, pH 7.4) was added to 40 nL compounds (in DMSO) at 10 CR, 3-fold dilution series from 50 μM FAC. Plates were incubated for 15 min at rt in dark. 4 μL, 40 μM substrate solution (100 mM Tris HCl, 100 mM NaCl, 0.05% Chaps, pH 7.4) was added to each well. Plates were centrifuged at 1000 rpm and incubated for 30 min at rt in dark. The plates were read on a PHERAstar® reader with excitation 340 nm and emission 460 nm. Data were analyzed in Genedata Screener®. IC50 values were determined by plotting % inhibition versus log compound concentration and using a one site dose response model.

[1] = molecular target: human Fibroblast activation protein alpha (hFAP) (Homo sapiens (Human), UniProt Q12884); assay: hFAP inhibition assay (tight binders); type: biochemical; conditions: tight-binder format, Ala-Pro-AMC 20 μM, 2.5 h incubation; n = 1 or geometric mean (n = 5-10)
Procedure: Data were analyzed in Genedata Screener®.

[2] = molecular target: Prolyl Oligopeptidase (hPREP) (Homo sapiens (Human), UniProt P48147); assay: hPREP inhibition assay; type: biochemical; conditions: hPREP 0.6 nM, Z-Gly-Pro-amino-methylcoumarin 50 μM; read-out: PREP IC50
Outline: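 Recombinant human PREP at 0.6 nM final, with Z-Gly-Pro-AMC substrate at 50 μM final. Buffer: 25 mM Tris HCl pH 7.5, 250 mM NaCl, 0.01% Triton X-100, 5 mM glutathione. Incubated 20 min at rt in the dark; fluorogenic AMC release read.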

FAP Mouse Plasma = FAP Mouse Plasma (Mus musculus (Mouse), UniProt P97321); assay: FAP plasma inhibition assay, mouse plasma; type: biochemical; conditions: mouse plasma dilution 1:67, Ala-Pro-AMC 75 μM; n = 1
Procedure: as §1

[3] = molecular target: FAP enzyme activity in mouse plasma (Mus musculus (Mouse), UniProt P97321); assay: FAP target engagement enzyme activity in mouse plasma after oral dosing; conditions: male C57Bl/6 mice, single oral dose 3 or 10 mg/kg; estimated from plasma exposure vs FAP activity, Imax fixed to 1; read-out: In vivo Mouse IC50
Procedure: The effect of test compound on FAP enzyme activity in mouse plasma was evaluated in an enzymatic assay using the Fibroblast Activation Protein alpha (FAP) specific fluorogenic substrate dipeptide-Coumarin, Ala-Pro-AMC, (ARI-3144). In this assay, FAP cleaves Ala-Pro-AMC to release free AMC which is measured as a fluorescent signal that correlates with enzyme activity.
Male C57Bl/6 mice (Charles River, Germany), 8 weeks of age, were single housed in a temperature-controlled room with a 12-hour light/dark cycle (06:00-18:00 light). The mice had ad libitum access to water and rodent chow diet (R70, Lactamin, Kimstad, Sweden), and were acclimated for 5 days upon arrival. After acclimation, all mice received a single oral dose of test compound (3 or 10 mg/kg). Blood samples for whole blood compound exposure measurements were taken at 0.25, 0.5, 1, 2, 4, 8 and 24 h post oral dosing. Samples were collected in EDTA capillary tubes (20 μL, K2E, REF 19.447) and were transferred to a 96-deep well plate (NUNC, Thermo Discher Scientific) and stored at −20° C. until further analyses were performed. […]
Recombinant human FAP (PB-17-1837, construct PL-17-0278, cd33-FAP (27-757)-6His, Mw85926 Da) was used as a standard for this assay. […] The plates were read on a Beckman Paradigm reader with excitation 360 nm and emission 465 nm. Fluorescence measurements were performed with kinetic read every 5 minutes for 60 min at room temperature. Data were analyzed in Excel (IDBS XLfit Add-In) using a Linear Regression (y=k*x+m) model to prepare a human recombinant FAP standard curve.
On the day of the assay, plasma was diluted (1:2) to 20 μL volume in buffer (PBS, 0.1% BSA) and 7.5 μL was transferred to the assay plate (384-well black, fluotrack PS, Greiner 781076). […] The plates were read on a Beckman Paradigm reader with excitation 360 nm and emission 465 nm. Fluorescence measurements were performed with kinetic read every 5 minutes for 60 minutes at room temperature. As noted above, FAP cleaves Ala-Pro-AMC to release free AMC which is measured as a fluorescent signal. […]

[4] = molecular target: human dipeptidylpeptidase 9 (hDPP9) (Homo sapiens (Human), UniProt Q86TI2); assay: hDPP9 inhibition assay; type: biochemical; conditions: highest compound concentration 10 μM; n = 1
Procedure: Compounds were tested in a biochemical inhibition assay using human dipeptidylpeptidase 9 (hDPP9) enzyme (R&D, #5419-SE-010) and the substrate Gly-Pro-amino-methylcoumarin (Enzo #BML-P189-0005) at 10 μM FAC. The enzymatic reactions were conducted in duplicate at rt for 30 min in 50 μL assay buffer (50 mM Tris, pH 7.5, 0.1% BSA). Compound solutions (in DMSO) at 10 CR, 3-fold dilution series were prepared in assay buffer ten-fold higher than the final concentration, and 5 μL of the dilution was added to a 50 μL reaction so that the highest compound concentration was 10 μM FAC and the concentration of DMSO was 1% in all wells. The plates were read on a PHERAstarPLUS (BMG) using kinetic mode with excitation 340 nm and emission 460 nm. Data were analyzed in Graph Pad Prism. […] Raw data signals were normalized using 1% DMSO as 0% control and no enzyme as 100% inhibitor control.

[5] = molecular target: human dipeptidylpeptidase 7 (hDPP7) (Homo sapiens (Human), UniProt Q9UHL4); assay: hDPP7 inhibition assay; type: biochemical; conditions: highest compound concentration 10 μM; n = 1
Procedure: Compounds were tested in a biochemical inhibition assay using human dipeptidylpeptidase 7 (hDPP7) enzyme (BPS Bioscience, #80070) and the substrate Ala-Pro-amino-methylcoumarin (BPS Bioscience, #80305) at 10 μM FAC. The enzymatic reactions were conducted in duplicate at rt for 20 min in 50 μL assay buffer (10 mM Tris-HCl, pH 7.4, 10 mM MgCl2, 1 mM MnCl2). Compound solutions (in DMSO) at 10 CR, 3-fold dilution series were prepared in assay buffer ten-fold higher than the final concentration, and 5 μL of the dilution was added to a 50 μL reaction so that the highest compound concentration was 10 μM FAC and the concentration of DMSO was 1% in all wells. The plates were read on a PHERAstarPLUS (BMG) using kinetic mode with excitation 340 nm and emission 460 nm. Data were analyzed in Graph Pad Prism. Raw data signals were normalized using 1% DMSO as 0% control and no enzyme as 100% inhibitor control.

Human Hepatocytes (hHep) = assay: Metabolic stability in human hepatocytes (hHep); type: in vitro ADME
Procedure: Metabolic stability in human hepatocytes was measured as described in Xenobiotica 2010, 40, 637.

Rat Hepatocytes (rHep) = assay: Metabolic stability in rat hepatocytes (rHep); type: in vitro ADME
Procedure: Metabolic stability in rat hepatocytes was measured as described in J Comput Aided Mol Des 2015, 29, 795.

Kinetic solubility = type: physicochemical; conditions: kinetic from dmso stock
Procedure: Kinetic solubility was measured as described in Comput Aided Mol Des 2015, 29, 795.

[6] = Metabolic stability in human liver microsomes (HLM); type: in vitro ADME
Procedure: Metabolic stability in HLM was measured as described in J Comput Aided Mol Des 2015, 29, 795.

[7] = molecular target: human dipeptidylpeptidase 8 (hDPP8) (Homo sapiens (Human), UniProt Q6V1X1); assay: hDPP8 inhibition assay; type: biochemical; conditions: single concentration 10 μM; n = 1
Procedure: Compounds were tested in a biochemical inhibition assay using human dipeptidylpeptidase 8 (hDPP8) enzyme (BPS Bioscience, #80800) and the substrate Gly-Pro-amino-methylcoumarin (Enzo #BML-P189-0005) at 10 μM FAC. The enzymatic reactions were conducted in duplicate at rt for 20 min in 50 μL assay buffer (50 mM Tris, pH 7.5, 0.1% BSA). Compound solutions (in DMSO), were prepared in assay buffer ten-fold higher than the final concentration, and 5 μL of the dilution was added to a 50 μL reaction so that the compound concentration was 10 μM FAC and the concentration of DMSO was 1% in all wells. The plates were read on a PHERAstarPLUS (BMG) using kinetic mode with excitation 340 nm and emission 460 nm. Data were analyzed in Graph Pad Prism. Raw data signals were normalized using 1% DMSO as 0% control and no enzyme as 100% inhibitor control.

Sequence of FAP Human Plasma (Q12884 24-760 limits assumed): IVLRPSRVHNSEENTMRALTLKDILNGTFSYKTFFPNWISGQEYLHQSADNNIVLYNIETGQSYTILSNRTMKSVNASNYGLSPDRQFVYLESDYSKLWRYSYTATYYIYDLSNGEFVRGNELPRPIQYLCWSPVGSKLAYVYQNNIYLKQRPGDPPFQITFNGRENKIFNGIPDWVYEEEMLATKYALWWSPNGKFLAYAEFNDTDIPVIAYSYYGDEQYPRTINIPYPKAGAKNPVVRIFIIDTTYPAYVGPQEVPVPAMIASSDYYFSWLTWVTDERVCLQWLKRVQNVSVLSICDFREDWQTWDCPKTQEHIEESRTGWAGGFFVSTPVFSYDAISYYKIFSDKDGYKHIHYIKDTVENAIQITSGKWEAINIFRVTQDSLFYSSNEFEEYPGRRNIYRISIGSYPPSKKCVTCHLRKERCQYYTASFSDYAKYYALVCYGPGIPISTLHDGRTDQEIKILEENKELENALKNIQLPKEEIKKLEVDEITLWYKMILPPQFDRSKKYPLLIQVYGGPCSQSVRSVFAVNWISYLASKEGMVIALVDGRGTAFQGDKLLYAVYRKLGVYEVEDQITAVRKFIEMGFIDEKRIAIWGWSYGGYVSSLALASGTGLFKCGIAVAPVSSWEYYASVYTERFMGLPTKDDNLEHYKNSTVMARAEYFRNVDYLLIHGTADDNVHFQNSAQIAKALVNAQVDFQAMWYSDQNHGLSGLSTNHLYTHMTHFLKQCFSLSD
Sequence of hFAP (Q12884 38-760): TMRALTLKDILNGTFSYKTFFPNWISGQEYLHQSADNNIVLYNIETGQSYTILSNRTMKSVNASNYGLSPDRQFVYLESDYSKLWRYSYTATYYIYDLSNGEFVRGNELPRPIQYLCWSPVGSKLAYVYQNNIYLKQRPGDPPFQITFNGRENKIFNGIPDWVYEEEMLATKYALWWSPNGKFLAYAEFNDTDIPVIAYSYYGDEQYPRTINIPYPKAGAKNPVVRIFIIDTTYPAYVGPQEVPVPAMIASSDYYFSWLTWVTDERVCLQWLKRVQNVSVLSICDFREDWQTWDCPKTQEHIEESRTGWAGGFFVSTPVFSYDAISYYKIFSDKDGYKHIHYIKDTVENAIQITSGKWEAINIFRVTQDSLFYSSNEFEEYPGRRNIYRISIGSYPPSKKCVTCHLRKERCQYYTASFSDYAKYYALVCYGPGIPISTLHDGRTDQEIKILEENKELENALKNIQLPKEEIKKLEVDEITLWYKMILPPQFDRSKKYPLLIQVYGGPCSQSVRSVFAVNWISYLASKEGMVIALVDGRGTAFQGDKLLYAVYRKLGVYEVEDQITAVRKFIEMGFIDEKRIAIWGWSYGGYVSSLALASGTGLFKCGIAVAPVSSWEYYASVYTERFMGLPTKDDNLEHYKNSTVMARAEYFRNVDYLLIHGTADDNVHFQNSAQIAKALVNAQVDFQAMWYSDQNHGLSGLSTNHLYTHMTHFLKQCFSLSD
Sequence of human Fibroblast activation protein alpha (hFAP) (Q12884 38-760): as above
Sequence of Prolyl Oligopeptidase (hPREP) (P48147 whole entry): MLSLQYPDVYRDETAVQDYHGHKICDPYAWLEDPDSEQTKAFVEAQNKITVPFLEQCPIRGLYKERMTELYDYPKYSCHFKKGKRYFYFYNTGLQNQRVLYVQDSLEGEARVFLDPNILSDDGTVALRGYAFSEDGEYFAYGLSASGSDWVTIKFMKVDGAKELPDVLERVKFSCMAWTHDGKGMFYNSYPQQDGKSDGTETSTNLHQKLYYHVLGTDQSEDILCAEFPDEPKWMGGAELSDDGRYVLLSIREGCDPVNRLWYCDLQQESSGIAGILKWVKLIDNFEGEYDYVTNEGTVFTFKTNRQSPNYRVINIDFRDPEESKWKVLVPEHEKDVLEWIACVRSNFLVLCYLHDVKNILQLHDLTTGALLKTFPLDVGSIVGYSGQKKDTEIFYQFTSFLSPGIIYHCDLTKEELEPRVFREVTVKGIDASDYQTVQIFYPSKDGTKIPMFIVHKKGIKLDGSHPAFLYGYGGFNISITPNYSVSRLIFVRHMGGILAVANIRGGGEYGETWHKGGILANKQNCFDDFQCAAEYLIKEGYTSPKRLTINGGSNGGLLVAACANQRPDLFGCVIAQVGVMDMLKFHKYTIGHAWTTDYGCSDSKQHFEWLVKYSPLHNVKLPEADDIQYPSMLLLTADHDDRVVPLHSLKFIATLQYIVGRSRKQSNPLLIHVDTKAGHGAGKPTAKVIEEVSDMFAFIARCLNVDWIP
Sequence of FAP Mouse Plasma (P97321 24-761 limits assumed): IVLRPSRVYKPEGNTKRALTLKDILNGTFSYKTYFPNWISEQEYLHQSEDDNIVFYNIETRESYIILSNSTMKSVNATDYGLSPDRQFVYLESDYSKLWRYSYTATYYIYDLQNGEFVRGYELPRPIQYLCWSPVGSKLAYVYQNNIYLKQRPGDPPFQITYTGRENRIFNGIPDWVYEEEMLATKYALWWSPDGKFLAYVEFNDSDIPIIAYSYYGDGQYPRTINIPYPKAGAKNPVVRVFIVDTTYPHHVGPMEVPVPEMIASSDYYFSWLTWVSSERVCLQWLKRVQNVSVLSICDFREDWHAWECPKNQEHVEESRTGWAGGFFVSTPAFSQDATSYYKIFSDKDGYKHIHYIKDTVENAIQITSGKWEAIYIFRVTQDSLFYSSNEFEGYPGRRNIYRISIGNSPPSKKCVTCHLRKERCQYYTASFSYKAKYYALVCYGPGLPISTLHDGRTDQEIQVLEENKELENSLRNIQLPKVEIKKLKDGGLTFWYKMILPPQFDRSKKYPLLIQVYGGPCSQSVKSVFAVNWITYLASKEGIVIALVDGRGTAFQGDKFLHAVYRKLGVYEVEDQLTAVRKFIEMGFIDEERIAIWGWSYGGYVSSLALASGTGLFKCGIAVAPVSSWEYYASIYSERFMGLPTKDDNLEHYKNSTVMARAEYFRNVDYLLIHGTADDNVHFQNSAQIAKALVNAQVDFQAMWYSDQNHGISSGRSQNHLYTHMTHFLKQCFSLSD
Sequence of human dipeptidylpeptidase 9 (hDPP9) (Q86TI2 whole entry): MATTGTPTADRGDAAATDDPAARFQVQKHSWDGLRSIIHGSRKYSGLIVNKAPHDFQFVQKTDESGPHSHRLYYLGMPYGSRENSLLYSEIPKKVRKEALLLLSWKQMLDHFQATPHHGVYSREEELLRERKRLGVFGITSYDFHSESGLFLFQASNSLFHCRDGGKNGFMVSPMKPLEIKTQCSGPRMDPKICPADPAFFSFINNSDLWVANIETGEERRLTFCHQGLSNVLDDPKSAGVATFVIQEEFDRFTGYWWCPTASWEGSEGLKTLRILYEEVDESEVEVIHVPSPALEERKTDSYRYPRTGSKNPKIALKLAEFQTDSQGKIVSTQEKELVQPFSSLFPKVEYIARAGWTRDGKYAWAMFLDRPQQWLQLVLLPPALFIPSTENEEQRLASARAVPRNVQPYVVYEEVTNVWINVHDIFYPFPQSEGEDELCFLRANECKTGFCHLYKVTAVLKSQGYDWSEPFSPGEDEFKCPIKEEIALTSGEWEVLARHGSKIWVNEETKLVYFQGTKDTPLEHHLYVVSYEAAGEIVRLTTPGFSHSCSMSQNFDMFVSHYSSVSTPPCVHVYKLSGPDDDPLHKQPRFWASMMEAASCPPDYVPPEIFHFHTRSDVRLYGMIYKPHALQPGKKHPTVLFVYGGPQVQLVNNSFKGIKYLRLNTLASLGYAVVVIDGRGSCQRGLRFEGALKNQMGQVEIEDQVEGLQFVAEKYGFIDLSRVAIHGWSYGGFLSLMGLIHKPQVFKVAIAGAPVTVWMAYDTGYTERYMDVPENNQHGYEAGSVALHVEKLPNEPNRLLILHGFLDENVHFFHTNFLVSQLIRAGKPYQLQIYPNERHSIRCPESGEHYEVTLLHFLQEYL
Sequence of human dipeptidylpeptidase 8 (hDPP8) (Q6V1X1 whole entry): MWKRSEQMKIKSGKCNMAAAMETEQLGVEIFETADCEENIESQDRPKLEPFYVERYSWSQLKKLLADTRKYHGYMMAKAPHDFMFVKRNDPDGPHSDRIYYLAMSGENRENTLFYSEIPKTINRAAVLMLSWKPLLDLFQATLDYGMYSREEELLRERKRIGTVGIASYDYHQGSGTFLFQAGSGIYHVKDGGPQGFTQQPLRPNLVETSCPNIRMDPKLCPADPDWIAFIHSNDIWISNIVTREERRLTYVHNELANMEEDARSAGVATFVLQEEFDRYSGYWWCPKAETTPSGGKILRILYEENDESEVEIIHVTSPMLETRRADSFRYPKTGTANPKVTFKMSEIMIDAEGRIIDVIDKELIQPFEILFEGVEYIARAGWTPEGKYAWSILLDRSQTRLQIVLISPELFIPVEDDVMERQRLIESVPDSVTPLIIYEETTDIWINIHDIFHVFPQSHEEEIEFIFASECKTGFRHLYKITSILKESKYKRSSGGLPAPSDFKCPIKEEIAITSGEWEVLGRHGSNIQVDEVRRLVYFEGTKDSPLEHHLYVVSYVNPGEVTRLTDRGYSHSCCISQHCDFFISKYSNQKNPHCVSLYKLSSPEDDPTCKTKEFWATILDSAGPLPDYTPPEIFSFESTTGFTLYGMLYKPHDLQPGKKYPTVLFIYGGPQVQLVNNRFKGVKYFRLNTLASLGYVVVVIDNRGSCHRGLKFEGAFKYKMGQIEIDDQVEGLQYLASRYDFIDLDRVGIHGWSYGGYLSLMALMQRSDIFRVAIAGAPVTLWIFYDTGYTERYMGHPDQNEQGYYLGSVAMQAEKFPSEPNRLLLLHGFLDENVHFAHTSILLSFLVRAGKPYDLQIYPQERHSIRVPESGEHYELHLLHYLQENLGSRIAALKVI
Sequence of FAP enzyme activity in mouse plasma (P97321 24-761 limits assumed): as the sequence (P97321 24-761 limits assumed) above

| IC50 (FAP Human Plasma) [nM] | IC50 (hFAP) [nM] | IC50 [1] [nM] | IC50 [2] [nM] | IC50 (FAP Mouse Plasma) [nM] | IC50 [3] [nM] | IC50 [4] [nM] | IC50 [5] [nM] | hHep CLint (Human Hepatocytes (hHep)) [μL/min/1E6] | rHeps CLint (Rat Hepatocytes (rHep)) [μL/min/1E6] | solubility (Kinetic solubility) [µM] | microsomal CLint [6] [µL/min/mg] | hDPP8 Activity at Compound Concentration 10 μM [7] | SMILES |
| --- | --- | --- | --- | --- | --- | --- | --- | --- | --- | --- | --- | --- | --- |
| 13 | 0.65 | 0.18 | > 50000 | 7.1 | 21 | – | – | – | – | – | – | – | N#C[C@@H]1C[C@@H]2C[C@@H]2N1C(=O)CNC(=O)c1ccnc2cc(Cl)ccc12 [Example 2, 7-Chloro-N-(2-((1S,3S,5S)-3-cyano-2-azabicyclo[3.1.0]hexan-2-yl)-2-oxoethyl)quinoline-4-carboxamide] |
| 3.6 | 0.81 | 0.33 | 12000 | 1.9 | – | > 10 | > 10 | 1.6 | 7.7 | > 1000 | 9.9 | Not Active | N#C[C@@H]1C[C@@H]2C[C@@H]2N1C(=O)CNC(=O)c1ccnc2cc(C(F)(F)F)ccc12 [Example 23, N-(2-((1S,3S,5S)-3-Cyano-2-azabicyclo[3.1.0]hexan-2-yl)-2-oxoethyl)-7-(trifluoromethyl)quinoline-4-carboxamide] |

From patent US20230406840A1, “N-(2-(3-CYANO-2-AZABICYCLO[3.1.0]HEXAN-2-YL)-2-OXOETHYL)QUINOLINE-4-CARBOXAMIDES” (AstraZeneca AB, priority 2022, published 2023)
